Target: T1, Recombinant human KIF18A (1-467 His-tagged) protein (Homo sapiens, UniProt Q8NI77)
T1 construct: Recombinant human KIF18A (1-467 His-tagged) protein; His; made in house
Test: KIF18A Enzyme Assay: microtubule-stimulated ATPase activity (ADP-Glo)
Format: biochemical
Details: 30 nM KIF18A, 30 μg/mL pig microtubules, 75 μM ATP, ADP-Glo luminescence
Outline: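 IC50 comes from a four-parameter logistic fit over a 22-point, 2-fold series, with ADP quantified by ADP-Glo luminescence. Reactions ran at room temperature: compound plus 30 nM KIF18A(1-467)-His for 15 min, then 75 μM ATP (Km) for 15 min. The buffer held pig microtubules at 30 μg/mL and 1 μM taxol.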

T1 sequence (Q8NI77 1-467): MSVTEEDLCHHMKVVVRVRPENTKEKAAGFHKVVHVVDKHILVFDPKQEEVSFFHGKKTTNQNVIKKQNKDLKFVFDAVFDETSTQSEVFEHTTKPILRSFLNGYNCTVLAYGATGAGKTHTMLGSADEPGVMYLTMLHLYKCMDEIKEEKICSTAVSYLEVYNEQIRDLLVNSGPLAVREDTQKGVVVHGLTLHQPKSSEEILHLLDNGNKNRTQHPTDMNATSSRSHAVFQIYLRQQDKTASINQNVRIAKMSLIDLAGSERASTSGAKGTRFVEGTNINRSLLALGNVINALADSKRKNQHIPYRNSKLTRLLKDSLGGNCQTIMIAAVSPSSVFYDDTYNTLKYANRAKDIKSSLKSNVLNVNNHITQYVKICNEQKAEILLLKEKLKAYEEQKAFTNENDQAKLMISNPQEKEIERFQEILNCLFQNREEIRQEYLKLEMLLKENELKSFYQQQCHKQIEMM
T1 sequence (P02550 whole entry partner): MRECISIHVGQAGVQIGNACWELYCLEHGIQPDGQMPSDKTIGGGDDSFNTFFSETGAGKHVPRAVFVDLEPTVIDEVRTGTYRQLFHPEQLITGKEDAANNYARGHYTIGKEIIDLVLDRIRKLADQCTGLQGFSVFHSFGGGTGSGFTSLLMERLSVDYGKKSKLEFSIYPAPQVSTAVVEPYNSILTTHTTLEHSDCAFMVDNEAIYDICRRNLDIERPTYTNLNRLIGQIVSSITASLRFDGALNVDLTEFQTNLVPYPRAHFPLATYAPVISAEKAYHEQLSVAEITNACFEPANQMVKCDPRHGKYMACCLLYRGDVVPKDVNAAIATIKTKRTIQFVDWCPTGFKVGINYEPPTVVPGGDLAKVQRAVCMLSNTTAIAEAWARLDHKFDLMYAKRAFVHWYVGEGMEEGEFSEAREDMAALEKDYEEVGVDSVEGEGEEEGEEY
T1 sequence (P02554 whole entry partner): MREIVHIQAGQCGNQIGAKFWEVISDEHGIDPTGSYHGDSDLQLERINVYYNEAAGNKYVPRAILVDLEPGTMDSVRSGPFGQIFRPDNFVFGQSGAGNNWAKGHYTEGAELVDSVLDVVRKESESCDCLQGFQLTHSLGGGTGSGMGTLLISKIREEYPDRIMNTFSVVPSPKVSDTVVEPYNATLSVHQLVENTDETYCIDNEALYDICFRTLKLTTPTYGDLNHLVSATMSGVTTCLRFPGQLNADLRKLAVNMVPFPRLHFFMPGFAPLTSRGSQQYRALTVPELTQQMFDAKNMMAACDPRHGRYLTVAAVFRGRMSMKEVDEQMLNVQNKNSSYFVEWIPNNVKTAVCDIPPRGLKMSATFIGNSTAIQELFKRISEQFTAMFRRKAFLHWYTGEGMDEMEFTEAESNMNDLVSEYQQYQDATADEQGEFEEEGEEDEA

| SMILES | IC50 [µM] |
| --- | --- |
| CC(CO)(CO)Nc1ccc(C(=O)Nc2cccc(N3CCOCC3)n2)c(N2CCC3(CC2)CC3)n1 [Example 148, 2-(6-azaspiro[2.5]oct-6-yl)-6-((1,3-dihydroxy-2-methyl-2-propanyl)amino)-N-(6-(4-morpholinyl)-2-pyridinyl)-3-pyridinecarboxamide] | 0.0604 |
| CC(C)(CO)Nc1cnc(C(=O)Nc2cccc(N3CCO[C@H](CO)C3)n2)c(N2CCC3(CC2)CC3)n1 [Example 120, 3-(6-azaspiro[2.5]octan-6-yl)-N-(6-((2S)-2-(hydroxymethyl)-4-morpholinyl)-2-pyridinyl)-5-((1-hydroxy-2-methyl-2-propanyl)amino)-2-pyrazinecarboxamide] | 0.176 |
| CC(C)(CO)Nc1ccc(C(=O)Nc2cccc(N3CCCC3(C)CO)n2)c(N2CCC3(CC2)CC3)n1 (centres unmarked) [Example 231, 6-((1-hydroxy-2-methylpropan-2-yl)amino)-N-(6-(2-(hydroxymethyl)-2-methylpyrrolidin-1-yl)pyridin-2-yl)-2-(6-azaspiro[2.5]octan-6-yl)nicotinamide] | 0.134 |
| COCC(C)(C)Nc1ccc(C(=O)Nc2cccc(N3CCO[C@H](C)C3)n2)c(N2CCC3(CC2)CC3)n1 [Example 200, 2-(6-azaspiro[2.5]octan-6-yl)-6-((1-methoxy-2-methyl-2-propanyl)amino)-N-(6-((2R)-2-methyl-4-morpholinyl)-2-pyridinyl)-3-pyridinecarboxamide] | 0.636 |
| C[C@@H]1CN(c2cccc(NC(=O)c3ccc(NC(CO)(CO)CO)nc3N3CCC4(CC3)CC4)n2)CCO1 [Example 222, 2-(6-azaspiro[2.5]octan-6-yl)-6-((1,3-dihydroxy-2-(hydroxymethyl)-2-propanyl)amino)-N-(6-((2R)-2-methyl-4-morpholinyl)-2-pyridinyl)-3-pyridinecarboxamide] | 0.088 |
| C[C@@H]1CN(c2cccc(NC(=O)c3ccc(C(C)(O)CO)nc3N3CCC4(CC3)CC4)n2)CCO1 (stereo partly drawn) [Example 166, 6-(1,2-dihydroxypropan-2-yl)-N-(6-((R)-2-methylmorpholino)pyridin-2-yl)-2-(6-azaspiro[2.5]octan-6-yl)nicotinamide] | 0.0625 |
| CC(C)(CO)Nc1ccc(C(=O)Nc2cccc(N3CCN(C4CCC4)CC3)n2)c(N2CCC3(CC2)CC3)n1 [Example 191, 2-(6-azaspiro[2.5]octan-6-yl)-N-(6-(4-cyclobutyl-1-piperazinyl)-2-pyridinyl)-6-((1-hydroxy-2-methyl-2-propanyl)amino)-3-pyridinecarboxamide] | 1.24 |
| CC(C)(C)NS(=O)(=O)c1cccc(NC(=O)c2ccc([C@@](O)(CO)C(F)(F)F)nc2N2CCC3(CC2)CC3)n1 (single isomer, unassigned) [Example 175] | 0.116 |
| CC(C)(CO)Nc1ccc(C(=O)Nc2cc(Cl)cc(N3CCOCC3)n2)c(N2CCC3(CC2)CC3)n1 [Example 152, 2-(6-azaspiro[2.5]oct-6-yl)-N-(4-chloro-6-(4-morpholinyl)-2-pyridinyl)-6-((1-hydroxy-2-methyl-2-propanyl)amino)-3-pyridinecarboxamide] | 0.0743 |
| CC1(O)CN(c2ccc(C(=O)Nc3cccc(S(=O)(=O)NC(C)(C)C)n3)c(N3CCC4(CC3)CC4)n2)C1 [Example 159, 2-(6-azaspiro[2.5]octan-6-yl)-6-(3-hydroxy-3-methyl-1-azetidinyl)-N-(6-((2-methyl-2-propanyl)sulfamoyl)-2-pyridinyl)-3-pyridinecarboxamide] | 0.169 |
| CC(C)(CO)Nc1cnc(C(=O)Nc2cc(Cl)cc(N3CCOCC3)n2)c(N2CCC3(CC2)CC3)n1 [Example 113, 3-(6-azaspiro[2.5]oct-6-yl)-N-(4-chloro-6-(4-morpholinyl)-2-pyridinyl)-5-((1-hydroxy-2-methyl-2-propanyl)amino)-2-pyrazinecarboxamide] | 0.112 |
| CC1(C)COC(=O)N1c1ccc(C(=O)Nc2cccc(N3CC[C@H](O)C3(C)C)n2)c(N2CCC3(CC2)CC3)n1 (stereo in doubt) [Example 220, 6-(4,4-dimethyl-2-oxooxazolidin-3-yl)-N-(6-(3-hydroxy-2,2-dimethylpyrrolidin-l-yl)pyridin-2-yl)-2-(6-azaspiro[2.5]octan-6-yl)nicotinamide] | 2.25 |
| C[C@@H]1CN(c2cccc(NC(=O)c3ccc(C(F)CO)nc3N3CCC4(CC3)CC4)n2)CCO1 (stereo partly drawn) [Example 197, 6-(1-Fluoro-2-hydroxyethyl)-N-(6-((R)-2-methylmorpholino)pyridin-2-yl)-2-(6-azaspiro[2.5]octan-6-yl)nicotinamide] | 0.18 |
| CC(O)(c1ccc(C(=O)Nc2cccc(N3CCOCC3)n2)c(N2CCC3(CC2)CC3)n1)C(F)(F)F (single isomer, unassigned) [Example 141] | 0.088 |
| C[C@@H]1CN(c2cccc(NC(=O)c3ccc(S(=O)(=O)NC(C)(C)C)nc3N3CCC4(CC3)CC4)n2)CCO1 [Example 225, 2-(6-azaspiro[2.5]octan-6-yl)-N-(6-((2R)-2-methyl-4-morpholinyl)-2-pyridinyl)-6-((2-methyl-2-propanyl)sulfamoyl)-3-pyridinecarboxamide] | 0.102 |
| C[C@@H]1CN(c2cccc(NC(=O)c3cnc(NS(=O)(=O)CCO)cc3N3CCC4(CC3)CC4)n2)CCO1 [Example 237] | 0.0667 |
| COCC(C)(CO)Nc1ccc(C(=O)Nc2cccc(N3CCO[C@H](C)C3)n2)c(N2CCC3(CC2)CC3)n1 (stereo partly drawn) [Example 217, 6-((1-hydroxy-3-methoxy-2-methylpropan-2-yl)amino)-N-(6-((R)-2-methylmorpholino)pyridin-2-yl)-2-(6-azaspiro[2.5]octan-6-yl)nicotinamide] | 0.222 |
| CC(C)(C)NS(=O)(=O)c1cccc(NC(=O)c2ccc([C@](C)(O)C(F)(F)F)nc2N2CCC3(CC2)CC3)n1 (single isomer, unassigned) [Example 154] | 0.105 |
| C[C@@H]1CN(c2nc(NC(=O)c3ccc(NC(C)(C)CO)nc3N3CCC4(CC3)CC4)ccc2F)CCO1 [Example 247, 2-(6-azaspiro[2.5]octan-6-yl)-N-(5-fluoro-6-((2R)-2-methyl-4-morpholinyl)-2-pyridinyl)-6-((1-hydroxy-2-methyl-2-propanyl)amino)-3-pyridinecarboxamide] | 0.0891 |

Further lines, results first:

| IC50 [µM] | SMILES |
| --- | --- |
| 0.0821 | C[C@H]1CN(c2cccc(NC(=O)c3ccc(NC(C)(C)CO)nc3N3CCC4(CC3)CC4)n2)CCO1 [Example 132, 2-(6-azaspiro[2.5]oct-6-yl)-6-((2-hydroxy-1,1-dimethylethyl)amino)-N-(6-((2S)-2-methyl-4-morpholinyl)-2-pyridinyl)-3-pyridinecarboxamide] |
| 0.168 | COC1CN(c2cccc(NC(=O)c3ccc(NC(C)(C)CO)nc3N3CCC4(CC3)CC4)n2)C1 [Example 145, 2-(6-azaspiro[2.5]oct-6-yl)-6-((1-hydroxy-2-methyl-2-propanyl)amino)-N-(6-(3-methoxy-1-azetidinyl)-2-pyridinyl)-3-pyridinecarboxamide] |
| 0.33 | CC(C)(CO)Nc1ccc(C(=O)Nc2cccc(N3CCC(O)CC3)n2)c(N2CCC3(CC2)CC3)n1 [Example 215, 2-(6-azaspiro[2.5]octan-6-yl)-6-((1-hydroxy-2-methyl-2-propanyl)amino)-N-(6-(4-hydroxy-1-piperidinyl)-2-pyridinyl)-3-pyridinecarboxamide] |
| 0.136 | CC(C)(CO)Nc1ccc(C(=O)Nc2cccc(N3CCCC3)n2)c(N2CCC3(CC2)CC3)n1 [Example 125, 2-(6-azaspiro[2.5]oct-6-yl)-6-((2-hydroxy-1,1-dimethylethyl)amino)-N-(6-(1-pyrrolidinyl)-2-pyridinyl)-3-pyridinecarboxamide] |
| 0.123 | CC(C)(CO)Nc1ccc(C(=O)Nc2cccc(N3CCOC(C(F)(F)F)C3)n2)c(N2CCC3(CC2)CC3)n1 (centres unmarked) [Example 205, 6-((1-hydroxy-2-methylpropan-2-yl)amino)-2-(6-azaspiro[2.5]octan-6-yl)-N-(6-(2-(trifluoromethyl)morpholino)pyridin-2-yl)nicotinamide] |
| 0.252 | C[C@@H]1CO[C@@H](C)CN1c1cccc(NC(=O)c2ccc(NC(C)(C)CO)nc2N2CCC3(CC2)CC3)n1 (racemic) [Example 187, N-(6-((2S,5R)-2,5-dimethylmorpholino)pyridin-2-yl)-6-((1-hydroxy-2-methylpropan-2-yl)amino)-2-(6-azaspiro[2.5]octan-6-yl)nicotinamide] |
| 0.0602 | CC1CN(c2cccc(NC(=O)c3ccc(NC(C)(C)CO)nc3N3CCC4(CC3)CC4)n2)CCO1 (centres unmarked) [Example 126, 6-((1-hydroxy-2-methylpropan-2-yl)amino)-N-(6-(2-methylmorpholino)pyridin-2-yl)-2-(6-azaspiro[2.5]octan-6-yl)nicotinamide] |
| 0.0719 | CC(C)(CO)Nc1ccc(C(=O)Nc2cccc(N3C[C@H]4C[C@H]4C3)n2)c(N2CCC3(CC2)CC3)n1 [Example 136, N-(6-((1R,5S)-3-azabicyclo[3.1.0]hex-3-yl)-2-pyridinyl)-2-(6-azaspiro[2.5]oct-6-yl)-6-((2-hydroxy-1,1-dimethylethyl)amino)-3-pyridinecarboxamide] |
| 0.159 | CC(C)(CO)Nc1ccc(C(=O)Nc2cccc(N3CC4(COC4)C3)n2)c(N2CCC3(CC2)CC3)n1 [Example 163, 2-(6-azaspiro[2.5]octan-6-yl)-6-((1-hydroxy-2-methyl-2-propanyl)amino)-N-(6-(2-oxa-6-azaspiro[3.3]heptan-6-yl)-2-pyridinyl)-3-pyridinecarboxamide] |
| 0.242 | CC(C)C1CN(c2cccc(NC(=O)c3ccc(NC(C)(C)CO)nc3N3CCC4(CC3)CC4)n2)CCO1 (centres unmarked) [Example 203, 6-((1-hydroxy-2-methylpropan-2-yl)amino)-N-(6-(2-isopropylmorpholino)pyridin-2-yl)-2-(6-azaspiro[2.5]octan-6-yl)nicotinamide] |

Source: patent US12441736B2, “KIF18A inhibitors” (AMGEN INC., priority 2018, dated 2025)
